From PMC11672637, “7-O-Carboxylic Acid-Substituted 3-O-Alkyl Difluoroquercetin; An Aztreonam-Potentiating Agent Against Carbapenemase-Producing Pseudomonas aeruginosa Through Simultaneous Inhibition of Metallo-β-Lactamase and Efflux Pump” (Antibiotics, 2024)
In brackets after ≈: the same amount, converted by molar mass. Where two headings read alike, the source gives them in different places.

Experiments:
PA-003, blaVIM = assay: MIC / checkerboard with ATM; type: cell-based, P. aeruginosa; design: key to Susceptibility category: S: susceptible; I: intermediate; R: resistant
PA-016, blaIMP = assay: MIC / checkerboard with ATM; type: cell-based, P. aeruginosa; design: key to Susceptibility category: S: susceptible; I: intermediate; R: resistant
PA-032, blaIMP = assay: MIC / checkerboard with ATM; type: cell-based, P. aeruginosa; design: key to Susceptibility category: S: susceptible; I: intermediate; R: resistant; conditions: for MIC: Pseudomonas aeruginosa
PA-028, blaNDM = assay: MIC / checkerboard with ATM; type: cell-based, P. aeruginosa; design: key to Susceptibility category: S: susceptible; I: intermediate; R: resistant; conditions: for MIC: Pseudomonas aeruginosa
PA-039, blaNDM = assay: MIC / checkerboard with ATM; type: cell-based, P. aeruginosa; design: key to Susceptibility category: S: susceptible; I: intermediate; R: resistant; conditions: PA-039
PA-040, blaNDM = assay: MIC / checkerboard with ATM; type: cell-based, P. aeruginosa; design: key to Susceptibility category: S: susceptible; I: intermediate; R: resistant; conditions: for MIC: Pseudomonas aeruginosa
PA-037, blaIMP/NDM = assay: MIC / checkerboard with ATM; type: cell-based, P. aeruginosa; design: key to Susceptibility category: S: susceptible; I: intermediate; R: resistant; conditions: for MIC: Pseudomonas aeruginosa
PA-042, blaIMP/NDM = assay: MIC / checkerboard with ATM; type: cell-based, P. aeruginosa; design: key to Susceptibility category: S: susceptible; I: intermediate; R: resistant; conditions: for MIC: Pseudomonas aeruginosa
[1] = test system: ATM-Susceptible CPPA (n = 11); assay: MIC distribution over clinical isolates; type: cell-based, P. aeruginosa; conditions: Pseudomonas aeruginosa
[2] = test system: wild-type P. aeruginosa (ATCC 27853); assay: Time–kill assay; type: cell-based; conditions: 24 h
Experimental: Aliquots (50 μL) were taken from the incubation mixture at regular time intervals (t = 0, 3, 6, and 24 h), serially diluted in 0.85% NaCl solution, and plated on BAP. Bacterial colonies were counted, and the data are presented as the means of at least three independent experiments.

Which results are given for C[C@H]1[C@H](NC(=O)/C(=N\OC(C)(C)C(=O)O)c2csc(N)n2)C(=O)N1S(=O)(=O)O [ATM, aztreonam]?
Susceptibility to ATM (PA-003, blaVIM; PA-003, ATM alone): R (R (resistant, MIC ≥ 32 mg/L)); Susceptibility category (PA-003, blaVIM; PA-003, Table S2): I; MIC (PA-003, blaVIM; Pseudomonas aeruginosa, read-out: MIC of ATM): 32 µg/mL; Susceptibility to ATM (PA-016, blaIMP; PA-016, ATM alone): R (R (resistant, MIC ≥ 32 mg/L)); Susceptibility category (PA-016, blaIMP; PA-016, Table S2): R; MIC (PA-016, blaIMP; Pseudomonas aeruginosa, read-out: MIC of ATM, PA-016, ATM alone (5 at 0 mg/L)): 32 µg/mL; Susceptibility to ATM (PA-032, blaIMP; PA-032, ATM alone): S (S (sensitive, MIC ≤ 8 mg/L)); Susceptibility category (PA-032, blaIMP; PA-032, Table S2): S; MIC (PA-032, blaIMP; PA-032, Table S2, read-out: MIC value): 4 µg/mL; MIC (PA-032, blaIMP; read-out: MIC of ATM, PA-032, ATM alone (5 at 0 mg/L)): 4 µg/mL; Susceptibility to ATM (PA-028, blaNDM; PA-028, ATM alone): S (S (sensitive, MIC ≤ 8 mg/L)); Susceptibility category (PA-028, blaNDM; PA-028, Table S2): S; MIC (PA-028, blaNDM; PA-028, Table S2, read-out: MIC value): 4 µg/mL; MIC (PA-028, blaNDM; read-out: MIC of ATM, PA-028, ATM alone (5 at 0 mg/L)): 8 µg/mL; Susceptibility to ATM (PA-039, blaNDM; ATM alone): I (I (intermediate, MIC = 16 mg/L)); Susceptibility category (PA-039, blaNDM; Table S2): R; Susceptibility to ATM (PA-040, blaNDM; PA-040, ATM alone): S (S (sensitive, MIC ≤ 8 mg/L)); Susceptibility category (PA-040, blaNDM; PA-040, Table S2): S; MIC (PA-040, blaNDM; PA-040, Table S2, read-out: MIC value): 4 µg/mL; MIC (PA-040, blaNDM; read-out: MIC of ATM, PA-040, ATM alone (5 at 0 mg/L)): 4 µg/mL; Susceptibility to ATM (PA-037, blaIMP/NDM; PA-037, ATM alone): S (S (sensitive, MIC ≤ 8 mg/L)); Susceptibility category (PA-037, blaIMP/NDM; PA-037, Table S2): S; MIC (PA-037, blaIMP/NDM; PA-037, Table S2, read-out: MIC value): 2 µg/mL; MIC (PA-037, blaIMP/NDM; read-out: MIC of ATM, PA-037, ATM alone (5 at 0 mg/L)): 4 µg/mL; Susceptibility to ATM (PA-042, blaIMP/NDM; PA-042, ATM alone): S (S (sensitive, MIC ≤ 8 mg/L)); Susceptibility category (PA-042, blaIMP/NDM; PA-042, Table S2): S; MIC (PA-042, blaIMP/NDM; PA-042, Table S2, read-out: MIC value): 2 µg/mL; MIC (PA-042, blaIMP/NDM; read-out: MIC of ATM, PA-042, ATM alone (5 at 0 mg/L)): 2 µg/mL; MIC50 ([1]; read-out: MIC50 of ATM, 5 at 0 mg/L): 4 µg/mL (≈ 9.19 µM); MIC90 ([1]; read-out: MIC90 of ATM, 5 at 0 mg/L): 8 µg/mL (≈ 18.4 µM); Log CFU/mL, ATM only ([2]; ATM 1/2 MIC): 9.31 Log CFU/mL; Log CFU/mL, ATM only ([2]; ATM 1/4 MIC): 9.57 Log CFU/mL; Log CFU/mL, ATM only ([2]; ATM 1 MIC): 8.02 Log CFU/mL; Log CFU/mL, ATM only ([2]; ATM 2 MIC): 0.17 Log CFU/mL
